Values quoted from earlier work in US9005185B2, “Nanochanneled device and related methods” (The Board of Regents of the University of Texas System, priority 2008, dated 2015).

Target: T1, Aromatase (Homo sapiens, UniProt P11511)
T1 sequence (P11511 1-503): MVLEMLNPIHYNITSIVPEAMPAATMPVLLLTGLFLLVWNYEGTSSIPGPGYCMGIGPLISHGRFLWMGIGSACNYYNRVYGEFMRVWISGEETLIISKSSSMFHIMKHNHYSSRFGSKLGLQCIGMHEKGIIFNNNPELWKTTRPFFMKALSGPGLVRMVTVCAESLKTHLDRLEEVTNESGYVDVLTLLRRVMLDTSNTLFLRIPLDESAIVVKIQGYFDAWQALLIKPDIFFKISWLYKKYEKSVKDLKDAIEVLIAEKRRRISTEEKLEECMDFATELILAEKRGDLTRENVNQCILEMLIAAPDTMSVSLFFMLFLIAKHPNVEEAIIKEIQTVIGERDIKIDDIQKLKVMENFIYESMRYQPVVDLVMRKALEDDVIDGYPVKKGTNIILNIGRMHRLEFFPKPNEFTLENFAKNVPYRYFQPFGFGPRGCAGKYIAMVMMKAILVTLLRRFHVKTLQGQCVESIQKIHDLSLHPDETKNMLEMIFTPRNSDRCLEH

In the case of `N#Cc1ccc(C(c2ccc(C#N)cc2)n2cncn2)cc1` [letrozole], the inhibits estrogen biosynthesis is listed as “approximately 99%”.
